Each compound was assayed on Escherichia coli strain ATCC25922 (assay: standard microdilution assay to determine minimum inhibitory concentrations (MICs)). Settings: Escherichia coli strain ATCC25922, microdilution.
Type: cell-based
Outline: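 Broth microdilution per CLSI (M7-A8/M100-S20), 100 μl final volume, with reference-strain quality control; MIC is the lowest inhibitory concentration. Scored "+"/"−" against a 16 micrograms/ml cutoff, "N/A" where unavailable.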
In the case of `NCCCCc1cc(OC(F)(F)F)cc(-c2cc3cn(-c4ccc(CNCCCN=C(N)N)cc4F)c(=O)nc3[nH]2)c1` [Compound 90], the “E. coli ATCC25922 MIC” value is reported as “+ (a “+” indicates that the compound has an MIC value of 16 micrograms/ml or less)”.
For `N=C(N)NCCCNCc1ccc(-n2cc3cc(-c4cc(CS(=O)(=O)CCN)ccc4F)[nH]c3nc2=O)cc1` [Compound 15], the “E. coli ATCC25922 MIC” value was “+ (a “+” indicates that the compound has an MIC value of 16 micrograms/ml or less)”.
`COc1c(CCCCN)cc(-c2cc3cn(-c4ccc(CNCCCNC(=N)N)cc4)c(=O)nc3[nH]2)cc1OC(F)(F)F` [Compound 44] was tested, and the “E. coli ATCC25922 MIC” value was “+ (a “+” indicates that the compound has an MIC value of 16 micrograms/ml or less)”.
For `Cc1cc(-c2cc3cn(-c4ccc(CNCCCN=C(N)N)cc4)c(=O)nc3[nH]2)cc(CCCCNC(=N)N)c1F` [Compound 74], the “E. coli ATCC25922 MIC” value was “+ (a “+” indicates that the compound has an MIC value of 16 micrograms/ml or less)”.
For `C[C@H](NCCCNC(=N)N)c1ccc(-n2cc3cc(-c4cc(CCCC(C)(C)N)cc(Cl)c4F)[nH]c3nc2=O)cc1` [Compound 296], the “E. coli ATCC25922 MIC” value was “+ (a “+” indicates that the compound has an MIC value of 16 micrograms/ml or less)”.
`CC(CN)CN1CC(NC(=O)Nc2nc(=O)c(-c3ccc(CNCCCNC(=N)N)cc3)c[nH]2)CC1COCc1c(Cl)cccc1Cl` (stereo not shown) [Compound 150] was tested, and the “E. coli ATCC25922 MIC” value was “− (a “−” indicates that the compound has an MIC value greater than 16 micrograms/ml)”.
For `N=C(N)NCCCNCc1ccc(-n2cc3cc(-c4cc(CCC5(CN)CCC5)ccc4F)[nH]c3nc2=O)cc1` [Compound 116], the “E. coli ATCC25922 MIC” value was “+ (a “+” indicates that the compound has an MIC value of 16 micrograms/ml or less)”.
`N=C(N)NCCCNCc1ccc(-n2cc3cc(-c4cc(CCCCN)cc(C(F)(F)F)c4C(F)(F)F)[nH]c3nc2=O)cc1` [Compound 293] was tested, and the “E. coli ATCC25922 MIC” value was “+ (a “+” indicates that the compound has an MIC value of 16 micrograms/ml or less)”.

Same assay, conditions: Escherichia coli strain ATCC25922, standard microdilution assay
`C[C@H](N)CCCc1cc(-c2cc3cn(-c4ccc([C@H](C)NCCCNC(=N)N)cc4)c(=O)nc3[nH]2)cc2c1CCC2` [Compound 393] was tested, and the “E. coli ATCC25922 MIC” value was “+ (a “+” indicates that the compound has an MIC value of 16 micrograms/ml or less)”.
In the case of `CC(NCCCNC(=N)N)c1ccc(-n2cc3cc(-c4cc(COC5CC(N)C5)cc(OC(F)(F)F)c4)[nH]c3nc2=O)cc1` (mixture of isomers) [Compound 423], the “E. coli ATCC25922 MIC” value is reported as “+ (a “+” indicates that the compound has an MIC value of 16 micrograms/ml or less)”.

From patent US9221827B2, “Antimicrobial compounds and methods of making and using the same” (Melinta Therapeutics, Inc., priority 2011, dated 2015)
